{"source": "patent US20060069136A1", "about": "“Use of Epothilones in the treatment of bone metastasis” (priority 2004, published 2006)", "key": {"[1]": {"tested_on": "Human breast cancer MDA MB 231", "assay": "Bone metastasis model, Example 2: treatment on Day 5, X-ray on Day 20", "assay_type": "in vivo, NMRI nude mice", "details": "10 mg/kg i.v. on Day 5", "protocol": "(§1) Human breast cancer MDA MB 231, injected to NMRI nude mice intracardially\n30 NMRI nude mice received 500,000 of MDA-MB 231 breast cancer tumor cells intracardially (Day 0). The tumor cells metastasized to the bones and the growth of the tumor in the bones lead to bone destruction. In addition, the development of tumors near the tumor cell injection site is observed. After 5 days (Day 5), 15 of the 30 animals were treated with the Test Compound (10 mg/kg, i.v.). On Day 20 the experiment was terminated and the size and number of bone metastases were measured in each animal using the X-ray technology described in example 1. In addition, the numer of animals which developed tumors at the tumor cell injection site was determined."}, "[2]": {"tested_on": "Human breast cancer MDA MB 231", "assay": "Bone metastasis model, Example 1: treatment on Day 10, X-ray on Day 22, survival", "assay_type": "in vivo, NMRI nude mice", "protocol": "as §1\nFour days before tumor cells implantation, the baseline bone structure of the mice was determined by X-ray. 30 NMRI nude mice received 500,000 of MDA-MB 231 breast cancer tumor cells intracardially (Day 0). The tumor cells metastasized to the bones and the growth of the tumor in the bones lead to bone destruction. After the period of 10 days (Day 10), 10 of the […] animals were treated with the Test Compound (10 mg/kg, i.v.). The size and number of bone metastases were monitored 4 days before tumor cell implantation (baseline) and on Day 22 in each animal using the X-ray technology described below.\nThe mice underwent an anaesthesia with a mixture of Rompun (Rompun 2% Bayer) diluted with sodium chloride solution(Braun) by 1:10 and Ketavet ( Pharmacia GmbH 100 mg/ml), diluted by 1:5 with isotonic sodium chloride solution. For application of the narcotics, 1 ml sterile syringes (Codan Medical) and cannula (Braun Sterican, size 18) were used.\nOnce the tolerance stage was reached, the mice were attached to a 1 mm strong acrylic glass and additionally taped with a self-adhesive tape (sticky side facing the animal). The acrylic glass served as surface on which the animals underwent the X-ray.\nAt the console of the Mammomat (run by the software “Detector” (Ifg) on Windows NT platform), the standard setting of 35 kV and 400 mAs was adjusted. The setting was chosen in such a way to allow a good contrasting of the entire skeletal system and visibility of finest changes/aberrations of the bone structure and morphology. The resolution of the systems lies at 0,27 μm.\nAfter initializing the Software the module “Zoomed Modus” was chosen for the detector and the ROIs 2-3 were selected in accordance with the previously selected positioning of the mouse. The regulator Image High was adjusted to 2000.\nThe actual measurements were started as soon as the Offset measurings and the reference measurings had been performed. The flexible table was brought into position (80 mm) and was advanced at a speed of 25,9 mm/sec. The final position of the table was chosen in such a way that the entire body of the mouse could be X-rayed all at once during the examination. The reference measuring was subtracted from each gained Image and was stored as a DICOM-file or as a BMP-file.\nAnalysis of the treatment was performed on Day 22 by evaluating twice the constructed exposures of the mice and searching for destructive processes of the skeletal system (focussing mainly on the long bones, spine and pelvis). The extend/area of the destructive processes/bone metastasis were determined with a special DICOM-Software (based on Microsoft Excel)."}, "[3]": {"details": "mean per animal, measured on Day 20 by X-ray, 10 mg/kg"}, "[4]": {"details": "10 mg/kg i.v. on Day 10, result in words"}}, "note": "“And” between values parts separate entries of the source, which are not always exact repeats. Equal values may be shown once.", "data": [{"smiles": "C=CCC1C(=O)C(C)(C)C(O)CC(=O)OC(c2ccc3sc(C)nc3c2)CC2OC2(C)CCCC(C)C1O", "note": "(stereo not shown) [Test Compound, 7,11-dihydroxy-3-(2-methyl-benzothiazol-5-yl)-10-(prop-2-en-1-yl)-8,8,12,16-tetramethyl-4,17-dioxabicyclo[14.1.0]heptadecane-5,9-dione]", "values": [{"measurement": "Number of bone-metastases", "setting": "[1]; [3]", "value": "0.7 and 0.7 ± 0.9"}, {"measurement": "Size of bone-metastases", "setting": "[1]; [3]", "value": "0.1 mm^2 and 0.1 ± 0.2 mm^2"}, {"measurement": "Number of animals which developed tumors at the tumor cell injection site", "setting": "[1]; of 15 animals, Day 20", "value": 0}, {"measurement": "Effect on bone metastasis (FIG. 1)", "setting": "[2]; [4]", "value": "inhibited bone metastasis"}, {"measurement": "Effect on life time (FIG. 1)", "setting": "[2]; [4]", "value": "prolongation of life time was observed"}, {"measurement": "Mean Survival Time", "setting": "[2]; 10 mg/kg i.v., single application on Day 10, MDA-MB 231 cells intracardially", "value": 31.6, "unit": "days"}, {"measurement": "Mean Bone Tumor Area", "setting": "[2]; 10 mg/kg i.v., single treatment on Day 10, X-ray analysis on Day 22, MDA-MB 231 cells intracardially", "value": 5.9, "unit": "mm^2"}]}]}
